Results from the NIST ThermoML archive (doi:10.1021/je2013704).

Assay: mn = molality of the nth substance listed, in mol/kg
Settings: Liquid, Vibrating tube method

[Cl][Al]([Cl])[Cl] [aluminum chloride] + O
mass density [kg/m3]
Settings | 900 kPa | 9900 kPa | 19900 kPa | 29900 kPa | 39900 kPa | 49900 kPa | 59900 kPa | 68400 kPa
298.12 K, m1 = 1 | 1105.53 | 1108.79 | 1112.3 | 1115.82 | 1119.28 | 1122.69 | 1125.95 | 1128.83
298.12 K, m1 = 2 | 1212.19 | 1214.96 | 1217.92 | 1220.94 | 1223.85 | 1226.72 | 1229.57 | 1232.02
323.07 K, m1 = 1 | 1096.76 | 1099.96 | 1103.44 | 1106.84 | 1110.31 | 1113.67 | 1116.93 | 1119.6
323.07 K, m1 = 2 | 1203.26 | 1206.02 | 1209.01 | 1211.9 | 1214.88 | 1217.8 | 1220.6 | 1222.88
348.04 K, m1 = 1 | 1085.66 | 1088.98 | 1092.48 | 1096.02 | 1099.44 | 1102.74 | 1106.07 | 1108.86
348.04 K, m1 = 2 | 1192.82 | 1196 | 1199.11 | 1202.1 | 1205.07 | 1207.92 | 1210.85 | 1213.26
372.99 K, m1 = 1 | 1072.64 | 1075.97 | 1079.63 | 1083.19 | 1086.72 | 1090.2 | 1093.58 | 1096.34
372.99 K, m1 = 2 | 1181.64 | 1184.73 | 1187.9 | 1191.11 | 1194.19 | 1197.22 | 1200.14 | 1202.66

[Ca+2].[Cl-].[Cl-] [calcium chloride] + O
mass density [kg/m3]
Settings | 283.15 K | 298.12 K | 323.07 K | 348.04 K | 372.99 K | 397.97 K | 422.94 K | 447.94 K | 472.96 K
1050 kPa, m1 = 1 | 1087.02 | 1082.37 | 1072.02 | 1058.99 | 1043.73 | 1026.22 | 1006.8 | 985.31 | –
1050 kPa, m1 = 3 | – | 1225.07 | 1212.47 | 1198.77 | 1184.12 | 1167.99 | 1150.79 | 1132.22 | –
1050 kPa, m1 = 6 | – | 1388 | 1372.06 | 1356.18 | 1340.35 | 1324.03 | 1307.39 | 1290.23 | –
10020 kPa, m1 = 1 | 1090.65 | 1085.93 | 1075.48 | 1062.51 | 1047.42 | 1030.11 | 1011.09 | 989.96 | 966.77
10020 kPa, m1 = 3 | – | 1228.17 | 1215.47 | 1201.83 | 1187.2 | 1171.26 | 1154.33 | 1135.97 | 1116.32
10020 kPa, m1 = 6 | – | 1390.67 | 1374.67 | 1358.9 | 1343.09 | 1326.81 | 1310.4 | 1293.23 | 1275.65
19970 kPa, m1 = 1 | 1094.63 | 1089.7 | 1079.27 | 1066.31 | 1051.39 | 1034.38 | 1015.62 | 995.04 | 972.43
19970 kPa, m1 = 3 | – | 1231.3 | 1218.73 | 1205.15 | 1190.58 | 1174.82 | 1158.03 | 1139.99 | 1120.67
19970 kPa, m1 = 6 | – | 1393.43 | 1377.58 | 1361.82 | 1346.07 | 1329.91 | 1313.54 | 1296.61 | 1279.19
29900 kPa, m1 = 1 | 1098.56 | 1093.48 | 1082.99 | 1070.05 | 1055.27 | 1038.38 | 1020 | 999.9 | 977.79
29900 kPa, m1 = 3 | – | 1234.6 | 1221.98 | 1208.41 | 1193.94 | 1178.23 | 1161.68 | 1143.88 | 1124.82
29900 kPa, m1 = 6 | – | 1396.28 | 1380.48 | 1364.67 | 1349.03 | 1332.86 | 1316.63 | 1299.83 | 1282.53
39830 kPa, m1 = 1 | 1102.39 | 1097.27 | 1086.62 | 1073.75 | 1059.05 | 1042.42 | 1024.3 | 1004.57 | 983.04
39830 kPa, m1 = 3 | – | 1237.81 | 1225.08 | 1211.58 | 1197.14 | 1181.65 | 1165.21 | 1147.62 | 1129.01
39830 kPa, m1 = 6 | – | 1399.14 | 1383.27 | 1367.55 | 1351.92 | 1335.87 | 1319.7 | 1303.02 | 1285.96
49760 kPa, m1 = 1 | 1106.11 | 1100.95 | 1090.1 | 1077.29 | 1062.77 | 1046.36 | 1028.53 | 1009.07 | 988.08
49760 kPa, m1 = 3 | – | 1240.96 | 1228.11 | 1214.64 | 1200.38 | 1184.96 | 1168.72 | 1151.3 | 1132.99
49760 kPa, m1 = 6 | – | 1401.93 | 1385.94 | 1370.29 | 1354.76 | 1338.78 | 1322.71 | 1306.09 | 1289.19
59680 kPa, m1 = 1 | 1109.84 | 1104.52 | 1093.62 | 1080.87 | 1066.34 | 1050.19 | 1032.62 | 1013.53 | 992.91
59680 kPa, m1 = 3 | – | 1244 | 1231.21 | 1217.8 | 1203.46 | 1188.2 | 1172.12 | 1154.99 | 1136.86
59680 kPa, m1 = 6 | – | 1404.61 | 1388.68 | 1373.09 | 1357.57 | 1341.67 | 1325.64 | 1309.22 | 1292.45
68120 kPa, m1 = 1 | 1113.04 | 1107.46 | 1096.56 | 1083.78 | 1069.39 | 1053.29 | 1036 | 1017.15 | 996.86
68120 kPa, m1 = 3 | – | 1246.57 | 1233.72 | 1220.39 | 1206.1 | 1190.88 | 1174.94 | 1157.94 | 1140.04
68120 kPa, m1 = 6 | – | 1406.89 | 1390.9 | 1375.4 | 1359.88 | 1344 | 1328.12 | 1311.73 | 1295.04
